According to PubChem BioAssay (NCI):
Several values for one entry are separate records, joined by “and”; a condition that tells them apart may be missing. Equal values may be shown once.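 Where inhibition never reached the appropriate level, the endpoint shown equals the highest concentration tested. Otherwise, values were interpolated linearly from a five-concentration, 48-hour dose response in 96-well plates. GI50: concentration for 50% inhibition of growth. At the TGI there is no net growth.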

Tests used:
Experiment in all cases: NCI anticancer screen, dose series, 48 h
HOP-62 NSCLC = test system: HOP-62 NSCLC
HT29 colon = test system: HT29 colon
IGROV1 ovarian = test system: IGROV1 ovarian
K-562 leukemia = test system: K-562 leukemia
M14 melanoma = test system: M14 melanoma
NCI-H23 lung = test system: NCI-H23 lung
OVCAR-4 ovarian = test system: OVCAR-4 ovarian
SK-MEL-28 melanoma = test system: SK-MEL-28 melanoma
UACC-257 melanoma = test system: UACC-257 melanoma

Structure (SMILES)	TGI (HOP-62 NSCLC)	TGI (HT29 colon)	TGI (IGROV1 ovarian)	TGI (K-562 leukemia)	TGI (M14 melanoma)	TGI (NCI-H23 lung)	TGI (OVCAR-4 ovarian)	TGI (SK-MEL-28 melanoma)	TGI (UACC-257 melanoma)	GI50 (HOP-62 NSCLC)	GI50 (HT29 colon)	GI50 (IGROV1 ovarian)	GI50 (K-562 leukemia)	GI50 (M14 melanoma)	GI50 (NCI-H23 lung)	GI50 (OVCAR-4 ovarian)	GI50 (SK-MEL-28 melanoma)	GI50 (UACC-257 melanoma)
CN(C)C(=S)/N=c1\ssc(=Nc2ccccc2)n1-c1ccccc1	75.5 µM	> 100 µM	> 100 µM	> 100 µM	44.2 µM	> 100 µM	18.9 µM	> 100 µM	> 100 µM									
COc1ccc(OCC(=O)O)c2c1CCC(C)C2=O (stereo not given)	> 100 µM	> 100 µM	> 100 µM	> 100 µM	> 100 µM		> 100 µM	> 100 µM	> 100 µM									
Cc1cccc(C=NC23CC4CC(CC(C4)C2)C3)c1	> 100 µM	> 100 µM	> 100 µM	> 100 µM	> 100 µM	> 100 µM	> 100 µM	> 100 µM	> 100 µM									
O=C(Nc1ccccc1)N1C(c2ccccc2)=N[C@@H](c2ccccc2)[C@@H]1c1ccccc1	47.9 µM	31.6 µM	53.4 µM	50.9 µM	28.2 µM	55.4 µM	44.6 µM	30.6 µM	35.3 µM									
N.N.N.N.O=S([O-])[O-].[Co+3].[N-]=[N+]=[N-]	> 100 µM	> 100 µM	> 100 µM	> 100 µM	> 100 µM	> 100 µM	> 100 µM	> 100 µM	> 100 µM	> 100000 nM	> 100000 nM	> 100000 nM	> 100 µM	> 100 µM	> 100 µM	> 100 µM	> 100 µM	> 100 µM
CCOC(=N)CC(=O)Nc1ccccc1CC	> 100 µM	> 100 µM	> 100 µM	> 100 µM	> 100 µM	> 100 µM	> 100 µM	> 100 µM	> 100 µM									
C[C@@H]1CC2(C[C@@H](C)C3[C@@H](CC4(C)CCCC5C6=CC(O)(CC[C@]34C)OC6=CC(=O)OC5(C)C)O2)OC1=O (stereo not given in full)			> 100 µM	> 100 µM	> 100 µM	> 100 µM	> 100 µM	> 100 µM										
C=C(c1ccccc1)c1cc2c(=O)[nH]ccc2n1C	> 100 µM		> 100 µM	46.3 µM	> 100 µM	> 100 µM	> 100 µM	> 100 µM	> 100 µM									
O=C(Cc1nc2ccccc2s1)C(=O)Nc1cccc(C(F)(F)F)c1	> 100 µM	> 100 µM	> 100 µM		> 100 µM	> 100 µM	> 100 µM	> 100 µM	> 100 µM									
O=C(O)C1CC2C=CCC(C2)C1 (stereo not given)	> 100 µM	> 100 µM	> 100 µM	> 100 µM	> 100 µM	> 100 µM	> 100 µM	> 100 µM	> 100 µM									
C/C(=C\c1ccccc1)C(=O)c1c(C)cc(C)cc1C	> 100 µM	> 100 µM	> 100 µM	> 100 µM	> 100 µM	> 100 µM	> 100 µM	> 100 µM	> 100 µM									
Cn1cnnc1Sc1c([N+](=O)[O-])nc(-c2ccc([N+](=O)[O-])cc2)n1C	> 100 µM	34.3 µM	33.4 µM	53.2 µM	30.6 µM	32.4 µM	29.5 µM	29.6 µM	29.5 µM									
Cc1nc(Nc2ccc(Cl)cc2)sc1C(=O)Nc1cccc2c(=O)[nH][nH]c(=O)c12	> 100 µM	41.6 µM	83.5 µM	47.3 µM	86.2 µM	40.5 µM	> 100 µM	> 100 µM	> 100 µM									
Nc1ccc(C(=O)N/C(=C\c2ccc3c(c2)OCO3)c2nc3ccccc3s2)cc1		25.8 µM	31.7 µM	38 µM	23.9 µM		25.1 µM	25.9 µM										
COc1ccccc1/C=C(\NC(=O)c1ccccc1)c1nc2ccccc2[nH]1		> 100 µM	> 100 µM	> 100 µM	> 100 µM	> 100 µM	> 100 µM	> 100 µM	> 100 µM									
NCCOCCOCC(=O)O		> 100 µM	> 100 µM	> 100 µM		> 100 µM	> 100 µM	> 100 µM	> 100 µM									

Structure (SMILES)	TGI (HOP-62 NSCLC)	TGI (HT29 colon)	TGI (IGROV1 ovarian)	TGI (K-562 leukemia)	TGI (M14 melanoma)	TGI (NCI-H23 lung)	TGI (OVCAR-4 ovarian)	TGI (SK-MEL-28 melanoma)	TGI (UACC-257 melanoma)	GI50 (HOP-62 NSCLC)	GI50 (HT29 colon)	GI50 (IGROV1 ovarian)	GI50 (K-562 leukemia)	GI50 (M14 melanoma)	GI50 (NCI-H23 lung)	GI50 (OVCAR-4 ovarian)	GI50 (SK-MEL-28 melanoma)	GI50 (UACC-257 melanoma)
COc1cccc(C=NC23CC4CC(CC(C4)C2)C3)c1	> 100 µM	> 100 µM	> 100 µM	> 100 µM	> 100 µM	> 100 µM	> 100 µM	> 100 µM	> 100 µM									
COC(=O)C1=C(O)c2cc(OC)c(OC)c(OC)c2C(c2ccc3c(c2)OCO3)[C@@H]1C(=O)OC (stereo not given in full)	> 100 µM	12.7 µM	> 100 µM	> 100 µM	10.7 µM	> 100 µM	> 100 µM	> 100 µM	> 100 µM									
COc1c2c(c(O)c3c4c(c(C)cc13)C1OC3(C(OC)OC5CC(C)(O)C(OC6CC(C)(O)C(O)C(C)O6)C(C)O5)OC1C(OC)(O4)C31CO1)C(=O)C(O)CC2OC1CC(C)(O)C(OC(C)=O)C(C)O1 (stereo not given)			0.957 µM	1.66 µM	0.0156 µM	< 0.01 µM	< 0.01 µM		< 0.01 µM									
O=C1N=C2N=C(c3ccc(Cl)cc3)N(c3ccc(Cl)cc3)N2Sc2ccccc21	> 100 µM	> 100 µM	> 100 µM	> 100 µM	> 100 µM	> 100 µM	> 100 µM	> 100 µM	> 100 µM									
O=C1c2ccccc2-c2c1c1ccccc1c(=O)n2CCNCCNCCNCCNCCn1c2c(c3ccccc3c1=O)C(=O)c1ccccc1-2	2.24 µM	4.07 µM				2.75 µM		> 100 µM	5.73 µM	973 nM	98.6 nM		0.0462 µM		0.615 µM		1.95 µM	0.716 µM
O=C1C(=O)N(c2cc(Cl)ccc2Cl)C(=O)C(=O)C1c1nc2ccccc2s1	> 100 µM	> 100 µM	> 100 µM	> 100 µM	> 100 µM	> 100 µM	> 100 µM	> 100 µM	> 100 µM									
CCCCn1c(-c2ccccc2)cs/c1=N\NC(=O)Cn1c(C)nc2ccccc21	> 100 µM	> 100 µM	> 100 µM	> 100 µM	> 100 µM	> 100 µM	> 100 µM		> 100 µM									
Cc1c(-c2ccc(-c3ccccc3F)cc2)nc2ccc(F)cc2c1C(=O)O	35 µM and 199 µM	142 µM and 235 µM	64.8 µM and 227 µM	211 µM and 401 µM	111 µM and 219 µM	173 µM and 529 µM	88.7 µM and 524 µM	158 µM and 400 µM	155 µM and 236 µM	500 nM	639 nM and 500 nM	726 nM and 654 nM		6.76 µM and 24.4 µM	17.4 µM and 35.1 µM	41 µM and 81.6 µM	22.4 µM and 67.8 µM	
O=C(NCCCN1CCN(CCCNC(=O)Nc2cc(Cl)ccc2Cl)CC1)Nc1cc(Cl)ccc1Cl	> 100 µM	> 100 µM	> 100 µM	> 100 µM	> 100 µM	> 100 µM	> 100 µM	> 100 µM	34 µM									
CCNC(=O)COc1ccc(Cl)c(C)c1	> 100 µM	> 100 µM	> 100 µM	> 100 µM	> 100 µM	> 100 µM	> 100 µM	> 100 µM	> 100 µM									
CC(NC1CCCC[C@@H]1O)c1ccccc1 (stereo not given in full)	> 100 µM	> 100 µM	> 100 µM	> 100 µM	> 100 µM		> 100 µM	> 100 µM	> 100 µM									
CSCc1ncc(-c2ccc(C(F)(F)F)cc2)c(NC2CCCCCC2)n1	> 10 µM	> 10 µM	> 10 µM	> 10 µM	> 10 µM	> 10 µM	> 10 µM	> 10 µM	> 10 µM	> 10000 nM	> 10000 nM	> 10000 nM	> 10 µM	> 10 µM	> 10 µM	> 10 µM	> 10 µM	> 10 µM
c1ccc(N2CCN(CCN3CCc4c([nH]c5ccccc45)C3c3cccnc3)CC2)cc1 (stereo not given)	> 100 µM	> 100 µM	> 100 µM	> 100 µM	> 100 µM	> 100 µM	> 100 µM	> 100 µM	> 100 µM									
Nc1ccccc1SC(/C=C/NNC1=NC(c2ccccc2)C(c2ccccc2)=NN1)c1ccccc1 (stereo not given)	34.3 µM	34.8 µM	32.5 µM	35.7 µM	25.3 µM	21.4 µM	28.7 µM	27 µM	28.1 µM									
C[C@]12CC[C@H](OC(=O)Nc3ccccc3)CC1=CC[C@@H]1C2CC[C@]2(C)/C(=N/OC(=O)Nc3ccccc3)CCC12 (stereo not given in full)		> 100 µM	> 100 µM	> 100 µM	> 100 µM	> 100 µM	> 100 µM											
COC(OC)c1cccnc1C	> 100 µM	> 100 µM	> 100 µM	> 100 µM	> 100 µM	> 100 µM	> 100 µM	> 100 µM	> 100 µM									
